Laboratory results from the kinase profiling compilation of Christmann-Franck et al. (2016).

Experiments:
Assay in all cases: KINOMEscan competition binding
Settings in all cases: compound 10.0 µM
TEC (human) = TEC (human) (UniProt P42680)
WEE2 (human) = WEE2 (human) (UniProt P0C1S8)
RPS6KA5 KD1 (human) = RPS6KA5 KD1 (human) (UniProt O75582)
EPHA5 (human) = EPHA5 (human) (UniProt P54756)
PRKAA2 (human) = PRKAA2 (human) (UniProt P54646)
[1] = molecular target: TYK2 JH1 catalytic (human) (UniProt P29597)
ANKK1 (human) = ANKK1 (human) (UniProt Q8NFD2)
INSRR (human) = INSRR (human) (UniProt P14616)
NEK7 (human) = NEK7 (human) (UniProt Q8TDX7)
Chain of NEK7 (human) (Q8TDX7 whole entry, looked up): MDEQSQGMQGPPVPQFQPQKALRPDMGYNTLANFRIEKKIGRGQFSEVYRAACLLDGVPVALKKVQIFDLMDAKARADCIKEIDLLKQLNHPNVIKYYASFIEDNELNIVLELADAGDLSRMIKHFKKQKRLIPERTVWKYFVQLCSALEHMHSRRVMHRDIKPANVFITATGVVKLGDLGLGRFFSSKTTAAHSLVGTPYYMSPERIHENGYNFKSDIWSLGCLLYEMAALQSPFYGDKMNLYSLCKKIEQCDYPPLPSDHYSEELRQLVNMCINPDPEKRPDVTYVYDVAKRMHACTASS

[2] = tested on: ABL1 (human), P00519 [H396P]
[3] = tested on: RET (human), P07949 [V804L]
Chain of RET (human), P07949 [V804L] (P07949 whole entry V804L, looked up): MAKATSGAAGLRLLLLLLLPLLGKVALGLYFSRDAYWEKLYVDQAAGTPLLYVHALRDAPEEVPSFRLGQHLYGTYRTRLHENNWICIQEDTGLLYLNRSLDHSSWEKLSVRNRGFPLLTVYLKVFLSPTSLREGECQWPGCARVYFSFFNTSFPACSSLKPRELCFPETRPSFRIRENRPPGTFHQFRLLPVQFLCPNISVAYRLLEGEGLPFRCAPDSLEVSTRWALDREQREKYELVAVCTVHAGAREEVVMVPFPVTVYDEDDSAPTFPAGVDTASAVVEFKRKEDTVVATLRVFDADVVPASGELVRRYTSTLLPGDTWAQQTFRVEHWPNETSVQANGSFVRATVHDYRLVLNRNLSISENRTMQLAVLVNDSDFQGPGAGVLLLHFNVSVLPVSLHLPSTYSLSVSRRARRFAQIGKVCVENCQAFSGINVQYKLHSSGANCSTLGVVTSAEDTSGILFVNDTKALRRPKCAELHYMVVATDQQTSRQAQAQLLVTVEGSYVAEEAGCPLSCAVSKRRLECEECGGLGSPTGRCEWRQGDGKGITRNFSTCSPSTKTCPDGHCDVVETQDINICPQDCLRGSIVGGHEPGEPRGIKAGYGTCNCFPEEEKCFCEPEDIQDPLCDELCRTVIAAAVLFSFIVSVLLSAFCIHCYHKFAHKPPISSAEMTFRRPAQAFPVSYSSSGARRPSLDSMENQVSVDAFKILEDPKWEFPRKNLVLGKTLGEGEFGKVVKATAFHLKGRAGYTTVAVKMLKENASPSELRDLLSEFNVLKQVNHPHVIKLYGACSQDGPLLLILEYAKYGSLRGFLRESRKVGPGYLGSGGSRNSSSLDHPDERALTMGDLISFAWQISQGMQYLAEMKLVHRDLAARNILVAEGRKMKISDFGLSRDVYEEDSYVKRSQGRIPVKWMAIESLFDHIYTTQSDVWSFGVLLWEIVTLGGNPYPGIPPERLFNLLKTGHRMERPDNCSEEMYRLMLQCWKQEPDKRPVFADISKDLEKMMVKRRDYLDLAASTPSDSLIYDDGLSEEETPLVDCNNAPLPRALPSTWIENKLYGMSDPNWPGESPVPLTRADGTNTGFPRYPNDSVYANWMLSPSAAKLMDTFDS

RET (human) = RET (human) (UniProt P07949)
Chain of RET (human) (P07949 whole entry, looked up): as the sequence (P07949 whole entry V804L, looked up) above, with L804V counted along it

BRSK1 (human) = BRSK1 (human) (UniProt Q8TDC3)
BTK (human) = BTK (human) (UniProt Q06187)
CHEK2 (human) = CHEK2 (human) (UniProt O96017)
RPS6KA4 KD1 (human) = RPS6KA4 KD1 (human) (UniProt O75676)
[4] = tested on: EGFR (human), P00533 [L858R]
[5] = tested on: EGFR (human), P00533 [P753S; 747-752 del]
PHKG1 (human) = PHKG1 (human) (UniProt Q16816)
Chain of PHKG1 (human) (Q16816 whole entry, looked up): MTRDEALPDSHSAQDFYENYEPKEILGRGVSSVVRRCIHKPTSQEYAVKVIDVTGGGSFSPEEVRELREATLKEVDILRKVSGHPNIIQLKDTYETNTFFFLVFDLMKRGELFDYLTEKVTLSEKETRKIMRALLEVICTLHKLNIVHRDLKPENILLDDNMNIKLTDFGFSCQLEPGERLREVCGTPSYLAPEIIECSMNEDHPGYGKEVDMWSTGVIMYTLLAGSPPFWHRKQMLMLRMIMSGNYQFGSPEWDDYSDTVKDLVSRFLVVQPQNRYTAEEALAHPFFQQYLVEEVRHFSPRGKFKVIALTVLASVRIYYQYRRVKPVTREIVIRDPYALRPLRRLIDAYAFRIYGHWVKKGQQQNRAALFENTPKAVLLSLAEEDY

CDC42BPB (human) = CDC42BPB (human) (UniProt Q9Y5S2)
MAPK12 (human) = MAPK12 (human) (UniProt P53778)
CAMK2D (human) = CAMK2D (human) (UniProt Q13557)
PAK7 (human) = PAK7 (human) (UniProt Q9P286)
STK35 (human) = STK35 (human) (UniProt Q8TDR2)
ROCK2 (human) = ROCK2 (human) (UniProt O75116)
ACVRL1 (human) = ACVRL1 (human) (UniProt P37023)
MAP4K1 (human) = MAP4K1 (human) (UniProt Q92918)
NTRK3 (human) = NTRK3 (human) (UniProt Q16288)
DCLK2 (human) = DCLK2 (human) (UniProt Q8N568)
PKN2 (human) = PKN2 (human) (UniProt Q16513)
FLT4 (human) = FLT4 (human) (UniProt P35916)
FGFR4 (human) = FGFR4 (human) (UniProt P22455)
NEK1 (human) = NEK1 (human) (UniProt Q96PY6)
Chain of NEK1 (human) (Q96PY6 whole entry, looked up): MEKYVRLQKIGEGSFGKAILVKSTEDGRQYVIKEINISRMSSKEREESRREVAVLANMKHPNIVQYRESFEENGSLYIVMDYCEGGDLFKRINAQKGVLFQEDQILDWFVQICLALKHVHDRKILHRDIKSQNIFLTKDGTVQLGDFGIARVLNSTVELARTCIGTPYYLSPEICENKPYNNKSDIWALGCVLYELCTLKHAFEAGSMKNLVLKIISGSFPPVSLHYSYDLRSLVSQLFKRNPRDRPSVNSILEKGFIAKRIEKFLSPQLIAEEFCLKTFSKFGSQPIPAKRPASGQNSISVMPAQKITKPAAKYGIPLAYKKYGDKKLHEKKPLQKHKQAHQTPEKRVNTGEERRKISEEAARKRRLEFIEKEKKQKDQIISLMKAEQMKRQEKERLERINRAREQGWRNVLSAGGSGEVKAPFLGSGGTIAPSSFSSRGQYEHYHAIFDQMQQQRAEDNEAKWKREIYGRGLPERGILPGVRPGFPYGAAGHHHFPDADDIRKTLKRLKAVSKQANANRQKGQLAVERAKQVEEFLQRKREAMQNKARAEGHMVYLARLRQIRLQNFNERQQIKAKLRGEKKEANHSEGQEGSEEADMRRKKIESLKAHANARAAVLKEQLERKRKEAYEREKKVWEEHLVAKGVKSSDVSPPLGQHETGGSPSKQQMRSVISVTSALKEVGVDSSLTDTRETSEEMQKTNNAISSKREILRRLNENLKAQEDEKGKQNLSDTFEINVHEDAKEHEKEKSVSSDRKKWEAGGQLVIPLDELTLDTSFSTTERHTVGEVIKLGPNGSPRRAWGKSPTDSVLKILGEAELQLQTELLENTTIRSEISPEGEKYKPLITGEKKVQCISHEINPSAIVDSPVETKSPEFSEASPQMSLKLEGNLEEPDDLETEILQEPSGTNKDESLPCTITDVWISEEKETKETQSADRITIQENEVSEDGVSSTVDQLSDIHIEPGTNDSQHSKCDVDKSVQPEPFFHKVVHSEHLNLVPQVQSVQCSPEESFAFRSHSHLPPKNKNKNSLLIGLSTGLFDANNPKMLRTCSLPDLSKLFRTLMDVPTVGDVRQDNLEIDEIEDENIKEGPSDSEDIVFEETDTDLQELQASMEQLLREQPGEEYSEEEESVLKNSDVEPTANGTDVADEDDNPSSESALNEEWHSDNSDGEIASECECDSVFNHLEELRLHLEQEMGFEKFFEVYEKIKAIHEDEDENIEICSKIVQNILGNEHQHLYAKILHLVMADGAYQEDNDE

[6] = molecular target: JAK1 JH1 catalytic (human) (UniProt P23458)
PAK1 (human) = PAK1 (human) (UniProt Q13153)
TNK2 (human) = TNK2 (human) (UniProt Q07912)
MAP2K6 (human) = MAP2K6 (human) (UniProt P52564)
Chain of MAP2K6 (human) (P52564 whole entry, looked up): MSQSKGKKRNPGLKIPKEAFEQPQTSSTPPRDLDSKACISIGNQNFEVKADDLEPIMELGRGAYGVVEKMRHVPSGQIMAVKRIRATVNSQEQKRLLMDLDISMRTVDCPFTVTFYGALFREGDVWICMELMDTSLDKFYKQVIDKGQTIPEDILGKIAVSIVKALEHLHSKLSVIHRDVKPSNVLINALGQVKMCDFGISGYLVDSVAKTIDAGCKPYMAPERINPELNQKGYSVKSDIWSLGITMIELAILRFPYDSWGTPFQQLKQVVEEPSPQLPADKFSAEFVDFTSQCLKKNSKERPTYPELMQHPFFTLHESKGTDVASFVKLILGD

PAK2 (human) = PAK2 (human) (UniProt Q13177)
Chain of PAK2 (human) (Q13177 whole entry, looked up): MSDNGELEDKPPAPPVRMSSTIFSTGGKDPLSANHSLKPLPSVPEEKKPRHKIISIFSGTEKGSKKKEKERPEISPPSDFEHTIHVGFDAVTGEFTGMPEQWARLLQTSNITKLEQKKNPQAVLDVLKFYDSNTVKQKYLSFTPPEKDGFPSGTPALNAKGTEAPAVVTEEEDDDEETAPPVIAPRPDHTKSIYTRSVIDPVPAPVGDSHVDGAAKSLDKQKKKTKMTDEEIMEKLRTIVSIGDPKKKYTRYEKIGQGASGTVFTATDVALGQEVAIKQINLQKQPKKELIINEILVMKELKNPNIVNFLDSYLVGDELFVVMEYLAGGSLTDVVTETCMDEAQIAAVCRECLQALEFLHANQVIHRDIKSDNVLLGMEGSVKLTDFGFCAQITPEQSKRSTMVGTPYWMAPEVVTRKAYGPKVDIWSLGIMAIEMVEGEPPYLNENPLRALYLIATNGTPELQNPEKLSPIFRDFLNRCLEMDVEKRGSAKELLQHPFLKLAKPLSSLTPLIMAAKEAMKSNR

AKT3 (human) = AKT3 (human) (UniProt Q9Y243)
TGFBR1 (human) = TGFBR1 (human) (UniProt P36897)
Chain of TGFBR1 (human) (P36897 whole entry, looked up): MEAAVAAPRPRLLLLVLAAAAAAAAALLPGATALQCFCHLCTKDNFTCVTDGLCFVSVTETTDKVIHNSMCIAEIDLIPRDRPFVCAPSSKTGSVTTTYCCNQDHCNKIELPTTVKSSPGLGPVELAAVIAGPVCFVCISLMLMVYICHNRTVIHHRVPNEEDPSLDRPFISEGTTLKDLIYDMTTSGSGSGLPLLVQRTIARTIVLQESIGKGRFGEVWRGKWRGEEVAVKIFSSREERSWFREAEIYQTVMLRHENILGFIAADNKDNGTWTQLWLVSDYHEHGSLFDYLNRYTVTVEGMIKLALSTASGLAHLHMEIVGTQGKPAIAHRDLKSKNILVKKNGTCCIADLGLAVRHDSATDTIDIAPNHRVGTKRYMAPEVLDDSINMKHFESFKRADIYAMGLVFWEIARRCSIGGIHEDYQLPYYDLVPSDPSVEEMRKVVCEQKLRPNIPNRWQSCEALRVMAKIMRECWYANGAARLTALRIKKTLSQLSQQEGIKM

SLK (human) = SLK (human) (UniProt Q9H2G2)
[7] = tested on: ABL1 (human), P00519 [Y253F]

Chain of WEE2 (human) (P0C1S8 whole entry, looked up): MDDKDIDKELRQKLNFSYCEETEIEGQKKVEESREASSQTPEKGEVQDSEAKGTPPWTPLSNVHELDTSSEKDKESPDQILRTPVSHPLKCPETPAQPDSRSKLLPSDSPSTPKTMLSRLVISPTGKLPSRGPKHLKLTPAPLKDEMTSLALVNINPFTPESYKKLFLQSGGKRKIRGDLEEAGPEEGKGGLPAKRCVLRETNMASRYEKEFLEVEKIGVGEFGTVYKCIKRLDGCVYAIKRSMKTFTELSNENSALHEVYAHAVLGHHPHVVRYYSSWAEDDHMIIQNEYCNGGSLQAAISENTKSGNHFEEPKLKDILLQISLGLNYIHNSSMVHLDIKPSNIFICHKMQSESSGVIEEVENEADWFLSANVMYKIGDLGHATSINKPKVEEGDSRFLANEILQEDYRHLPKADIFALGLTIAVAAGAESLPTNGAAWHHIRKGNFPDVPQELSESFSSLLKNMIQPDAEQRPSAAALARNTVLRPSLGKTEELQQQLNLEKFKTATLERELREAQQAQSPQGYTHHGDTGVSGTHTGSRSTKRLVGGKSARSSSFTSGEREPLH

O=C1NC(=O)/C(=C/c2c[nH]c(=O)c(-c3ccc(N4CCNCC4)nc3)c2)S1
kinase still bound, per cent of control (TEC (human)): 84%
kinase still bound, per cent of control (WEE2 (human)): 100%
kinase still bound, per cent of control (RPS6KA5 KD1 (human)): 100%
kinase still bound, per cent of control (EPHA5 (human)): 100%
kinase still bound, per cent of control (PRKAA2 (human)): 100%
kinase still bound, per cent of control [1]: 2.5%
kinase still bound, per cent of control (ANKK1 (human)): 70%
kinase still bound, per cent of control (INSRR (human)): 86%
kinase still bound, per cent of control (NEK7 (human)): 100%
kinase still bound, per cent of control [2]: 96%
kinase still bound, per cent of control [3]: 70%
kinase still bound, per cent of control (RET (human)): 70%
kinase still bound, per cent of control (BRSK1 (human)): 100%
kinase still bound, per cent of control (BTK (human)): 51%
kinase still bound, per cent of control (CHEK2 (human)): 70%
kinase still bound, per cent of control (RPS6KA4 KD1 (human)): 100%
kinase still bound, per cent of control [4]: 49%
kinase still bound, per cent of control [5]: 76%
kinase still bound, per cent of control (PHKG1 (human)): 29%
kinase still bound, per cent of control (CDC42BPB (human)): 100%
kinase still bound, per cent of control (MAPK12 (human)): 60%
kinase still bound, per cent of control (CAMK2D (human)): 59%
kinase still bound, per cent of control (PAK7 (human)): 65%
kinase still bound, per cent of control (STK35 (human)): 79%
kinase still bound, per cent of control (ROCK2 (human)): 56%
kinase still bound, per cent of control (ACVRL1 (human)): 100%
kinase still bound, per cent of control (MAP4K1 (human)): 10%
kinase still bound, per cent of control (NTRK3 (human)): 88%
kinase still bound, per cent of control (DCLK2 (human)): 67%
kinase still bound, per cent of control (PKN2 (human)): 41%
kinase still bound, per cent of control (FLT4 (human)): 90%
kinase still bound, per cent of control (FGFR4 (human)): 93%
kinase still bound, per cent of control (NEK1 (human)): 73%
kinase still bound, per cent of control [6]: 24%
kinase still bound, per cent of control (PAK1 (human)): 90%
kinase still bound, per cent of control (TNK2 (human)): 100%
kinase still bound, per cent of control (MAP2K6 (human)): 100%
kinase still bound, per cent of control (PAK2 (human)): 53%
kinase still bound, per cent of control (AKT3 (human)): 98%
kinase still bound, per cent of control (TGFBR1 (human)): 48%
kinase still bound, per cent of control (SLK (human)): 29%
kinase still bound, per cent of control [7]: 95%

COc1cc(N2CCN(C)CC2)ccc1Nc1ncc2c(n1)Nc1ccccc1NC2=O
kinase still bound, per cent of control (TEC (human)): 87%
kinase still bound, per cent of control (WEE2 (human)): 93%
kinase still bound, per cent of control (RPS6KA5 KD1 (human)): 90%
kinase still bound, per cent of control (EPHA5 (human)): 90%
kinase still bound, per cent of control (PRKAA2 (human)): 84%
kinase still bound, per cent of control [1]: 66%
kinase still bound, per cent of control (ANKK1 (human)): 82%
kinase still bound, per cent of control (INSRR (human)): 41%
kinase still bound, per cent of control (NEK7 (human)): 70%
kinase still bound, per cent of control [2]: 21%
kinase still bound, per cent of control [3]: 80%
kinase still bound, per cent of control (RET (human)): 95%
kinase still bound, per cent of control (BRSK1 (human)): 91%
kinase still bound, per cent of control (BTK (human)): 23%
kinase still bound, per cent of control (CHEK2 (human)): 84%
kinase still bound, per cent of control (RPS6KA4 KD1 (human)): 100%
kinase still bound, per cent of control [4]: 28%
kinase still bound, per cent of control [5]: 39%
kinase still bound, per cent of control (PHKG1 (human)): 46%
kinase still bound, per cent of control (CDC42BPB (human)): 100%
kinase still bound, per cent of control (MAPK12 (human)): 81%
kinase still bound, per cent of control (CAMK2D (human)): 92%
kinase still bound, per cent of control (PAK7 (human)): 78%
kinase still bound, per cent of control (STK35 (human)): 100%
kinase still bound, per cent of control (ROCK2 (human)): 48%
kinase still bound, per cent of control (ACVRL1 (human)): 81%
kinase still bound, per cent of control (MAP4K1 (human)): 100%
kinase still bound, per cent of control (NTRK3 (human)): 2.1%
kinase still bound, per cent of control (DCLK2 (human)): 89%
kinase still bound, per cent of control (PKN2 (human)): 100%
kinase still bound, per cent of control (FLT4 (human)): 10%
kinase still bound, per cent of control (FGFR4 (human)): 100%
kinase still bound, per cent of control (NEK1 (human)): 95%
kinase still bound, per cent of control [6]: 50%
kinase still bound, per cent of control (PAK1 (human)): 82%
kinase still bound, per cent of control (TNK2 (human)): 56%
kinase still bound, per cent of control (MAP2K6 (human)): 97%
kinase still bound, per cent of control (PAK2 (human)): 80%
kinase still bound, per cent of control (AKT3 (human)): 100%
kinase still bound, per cent of control (TGFBR1 (human)): 79%
kinase still bound, per cent of control (SLK (human)): 100%
kinase still bound, per cent of control [7]: 26%

CN1CCN(c2ccc(C(=O)Nc3ncc4c(n3)N(C)c3ccccc3C(=O)N4C)cc2)CC1
kinase still bound, per cent of control (TEC (human)): 93%
kinase still bound, per cent of control (WEE2 (human)): 100%
kinase still bound, per cent of control (RPS6KA5 KD1 (human)): 87%
kinase still bound, per cent of control (EPHA5 (human)): 100%
kinase still bound, per cent of control (PRKAA2 (human)): 100%
kinase still bound, per cent of control [1]: 44%
kinase still bound, per cent of control (ANKK1 (human)): 28%
kinase still bound, per cent of control (INSRR (human)): 100%
kinase still bound, per cent of control (NEK7 (human)): 100%
kinase still bound, per cent of control [2]: 88%
kinase still bound, per cent of control [3]: 100%
kinase still bound, per cent of control (RET (human)): 100%
kinase still bound, per cent of control (BRSK1 (human)): 87%
kinase still bound, per cent of control (BTK (human)): 100%
kinase still bound, per cent of control (CHEK2 (human)): 100%
kinase still bound, per cent of control (RPS6KA4 KD1 (human)): 100%
kinase still bound, per cent of control [4]: 100%
kinase still bound, per cent of control [5]: 100%
kinase still bound, per cent of control (PHKG1 (human)): 98%
kinase still bound, per cent of control (CDC42BPB (human)): 98%
kinase still bound, per cent of control (MAPK12 (human)): 98%
kinase still bound, per cent of control (CAMK2D (human)): 100%
kinase still bound, per cent of control (PAK7 (human)): 100%
kinase still bound, per cent of control (STK35 (human)): 100%
kinase still bound, per cent of control (ROCK2 (human)): 100%
kinase still bound, per cent of control (ACVRL1 (human)): 98%
kinase still bound, per cent of control (MAP4K1 (human)): 98%
kinase still bound, per cent of control (NTRK3 (human)): 84%
kinase still bound, per cent of control (DCLK2 (human)): 22%
kinase still bound, per cent of control (PKN2 (human)): 78%
kinase still bound, per cent of control (FLT4 (human)): 100%
kinase still bound, per cent of control (FGFR4 (human)): 100%
kinase still bound, per cent of control (NEK1 (human)): 100%
kinase still bound, per cent of control [6]: 100%
kinase still bound, per cent of control (PAK1 (human)): 99%
kinase still bound, per cent of control (TNK2 (human)): 92%
kinase still bound, per cent of control (MAP2K6 (human)): 100%
kinase still bound, per cent of control (PAK2 (human)): 100%
kinase still bound, per cent of control (AKT3 (human)): 90%
kinase still bound, per cent of control (TGFBR1 (human)): 100%
kinase still bound, per cent of control (SLK (human)): 100%
kinase still bound, per cent of control [7]: 100%
